According to ChEMBL document CHEMBL1201862, “PubChem BioAssay data set” (2004):
The source made the active and inactive calls.

Key:
[1] = tested on: Escherichia coli; assay: microbe, parasite or virus in culture
[2] = molecular target: T1, Heat shock factor protein 1 (Mus musculus, UniProt P38532); assay: decrease of HSF1-responsive luciferase luminescence – cell-based, NIH3T3, dose retest, confirmation (AID 2382); type: functional;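 further: NIH3T3 fibroblasts with HSF1-driven luciferase reporter stressed by proteasome inhibitor MG132; luminescence from HSF1-driven luciferase expression after 8 hours of MG132 stress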
T1 sequence (P38532 whole entry): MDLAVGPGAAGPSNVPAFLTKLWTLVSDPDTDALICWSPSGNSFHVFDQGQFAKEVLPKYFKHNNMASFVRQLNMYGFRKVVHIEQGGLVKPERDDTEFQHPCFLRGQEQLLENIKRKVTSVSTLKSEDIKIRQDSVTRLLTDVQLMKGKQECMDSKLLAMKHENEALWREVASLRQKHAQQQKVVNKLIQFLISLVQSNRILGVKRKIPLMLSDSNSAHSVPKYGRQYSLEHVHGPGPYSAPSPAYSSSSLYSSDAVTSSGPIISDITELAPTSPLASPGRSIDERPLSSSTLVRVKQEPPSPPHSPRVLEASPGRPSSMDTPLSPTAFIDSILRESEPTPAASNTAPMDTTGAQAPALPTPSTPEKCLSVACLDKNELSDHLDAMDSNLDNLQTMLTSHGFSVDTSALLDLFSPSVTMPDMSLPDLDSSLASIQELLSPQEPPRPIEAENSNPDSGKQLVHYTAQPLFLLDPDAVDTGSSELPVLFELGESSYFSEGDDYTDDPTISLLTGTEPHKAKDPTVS

[3] = tested on: Jurkat; assay: SAR Analysis of small molecule inhibitors of T-cell specific antigen receptor-induced NF-kB activation in a Jurkat cell line using a luminescence assay - Set 2. [Related pubchem assays (depositor defined):AID435003, AID435012, AID465]; type: functional, cell-based; conditions: Homo sapiens
[4] = tested on: HEK293; assay: SAR Analysis of small molecule inhibitors of T-cell specific antigen receptor-induced NF-kB activation in a HEK-293T cell line using a luminescence assay - Set 2. [Related pubchem assays (depositor defined):AID435003, AID435012, AID489026]; type: functional, cell-based; conditions: Homo sapiens
[5] = tested on: HEK293; assay: HEK293T cell viability loss, resazurin readout – resazurin fluorescence, cytotoxicity control for NF-kB activator project, SAR follow-up (AID 493251); type: functional, cell-based; conditions: Homo sapiens
[6] = molecular target: T2, Beta-2 adrenergic receptor (Homo sapiens, UniProt P07550); assay: Dose response for HTS for Beta-2AR agonists via FAP method from Powderset3.; type: functional
T2 sequence (P07550 whole entry): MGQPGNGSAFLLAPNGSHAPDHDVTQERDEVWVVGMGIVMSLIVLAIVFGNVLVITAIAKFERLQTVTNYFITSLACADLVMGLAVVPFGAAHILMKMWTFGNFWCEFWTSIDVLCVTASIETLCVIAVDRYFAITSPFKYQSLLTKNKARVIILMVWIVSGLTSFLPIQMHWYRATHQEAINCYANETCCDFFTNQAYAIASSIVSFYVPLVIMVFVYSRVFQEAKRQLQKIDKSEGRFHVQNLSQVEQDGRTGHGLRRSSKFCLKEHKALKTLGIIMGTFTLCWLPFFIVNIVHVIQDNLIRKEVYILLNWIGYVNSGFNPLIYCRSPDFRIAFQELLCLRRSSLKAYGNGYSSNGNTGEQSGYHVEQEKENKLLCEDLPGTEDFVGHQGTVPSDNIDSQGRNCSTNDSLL

[7] = molecular target: T2, Beta-2 adrenergic receptor; assay: ADRB2 activation measured by internalization – cell-based, FAP fluorogen, flow cytometry, cherry pick 1, dose response (AID 588763); type: functional
[8] = molecular target: T3, Hexokinase HKDC1 (Homo sapiens, UniProt Q2TB90); assay: SAR analysis of small molecule inhibitors of hexokinase domain containing I (HKDC1). [Related pubchem assays (depositor defined):AID493160, AID493190]; type: functional
T3 sequence (Q2TB90 whole entry): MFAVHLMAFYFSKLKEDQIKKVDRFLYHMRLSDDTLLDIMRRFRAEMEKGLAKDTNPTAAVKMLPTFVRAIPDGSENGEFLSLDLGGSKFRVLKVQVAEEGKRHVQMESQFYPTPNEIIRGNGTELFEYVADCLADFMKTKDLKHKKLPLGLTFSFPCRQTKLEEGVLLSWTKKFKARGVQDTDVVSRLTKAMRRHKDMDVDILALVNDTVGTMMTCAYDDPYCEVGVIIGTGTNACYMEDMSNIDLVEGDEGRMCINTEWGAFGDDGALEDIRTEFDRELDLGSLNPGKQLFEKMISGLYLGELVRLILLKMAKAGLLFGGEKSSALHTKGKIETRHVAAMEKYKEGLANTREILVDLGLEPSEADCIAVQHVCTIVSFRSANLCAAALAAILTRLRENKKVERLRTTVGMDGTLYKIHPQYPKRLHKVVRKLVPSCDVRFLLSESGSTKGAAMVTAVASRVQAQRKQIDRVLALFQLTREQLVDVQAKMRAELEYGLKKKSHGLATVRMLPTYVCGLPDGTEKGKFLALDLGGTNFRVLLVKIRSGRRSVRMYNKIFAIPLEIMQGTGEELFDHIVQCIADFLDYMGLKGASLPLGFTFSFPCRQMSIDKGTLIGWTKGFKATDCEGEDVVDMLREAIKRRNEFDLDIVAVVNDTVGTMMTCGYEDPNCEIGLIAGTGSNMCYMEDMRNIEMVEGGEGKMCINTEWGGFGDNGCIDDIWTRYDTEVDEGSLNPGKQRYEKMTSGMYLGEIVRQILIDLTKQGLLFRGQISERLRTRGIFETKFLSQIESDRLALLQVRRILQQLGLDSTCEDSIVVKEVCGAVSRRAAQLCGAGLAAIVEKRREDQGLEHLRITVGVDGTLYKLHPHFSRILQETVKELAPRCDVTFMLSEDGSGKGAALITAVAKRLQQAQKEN

[9] = molecular target: Hexokinase-1 (Homo sapiens, UniProt P19367); assay: SAR analysis of small molecule inhibitors of hexokinase domain containing I (HKDC1) in the hexokinase 1 selectivity assay. [Related pubchem assays (depositor defined):AID493160, AID493190]; type: functional
Chain of Hexokinase-1 (P19367 whole entry, the tested form may be a part): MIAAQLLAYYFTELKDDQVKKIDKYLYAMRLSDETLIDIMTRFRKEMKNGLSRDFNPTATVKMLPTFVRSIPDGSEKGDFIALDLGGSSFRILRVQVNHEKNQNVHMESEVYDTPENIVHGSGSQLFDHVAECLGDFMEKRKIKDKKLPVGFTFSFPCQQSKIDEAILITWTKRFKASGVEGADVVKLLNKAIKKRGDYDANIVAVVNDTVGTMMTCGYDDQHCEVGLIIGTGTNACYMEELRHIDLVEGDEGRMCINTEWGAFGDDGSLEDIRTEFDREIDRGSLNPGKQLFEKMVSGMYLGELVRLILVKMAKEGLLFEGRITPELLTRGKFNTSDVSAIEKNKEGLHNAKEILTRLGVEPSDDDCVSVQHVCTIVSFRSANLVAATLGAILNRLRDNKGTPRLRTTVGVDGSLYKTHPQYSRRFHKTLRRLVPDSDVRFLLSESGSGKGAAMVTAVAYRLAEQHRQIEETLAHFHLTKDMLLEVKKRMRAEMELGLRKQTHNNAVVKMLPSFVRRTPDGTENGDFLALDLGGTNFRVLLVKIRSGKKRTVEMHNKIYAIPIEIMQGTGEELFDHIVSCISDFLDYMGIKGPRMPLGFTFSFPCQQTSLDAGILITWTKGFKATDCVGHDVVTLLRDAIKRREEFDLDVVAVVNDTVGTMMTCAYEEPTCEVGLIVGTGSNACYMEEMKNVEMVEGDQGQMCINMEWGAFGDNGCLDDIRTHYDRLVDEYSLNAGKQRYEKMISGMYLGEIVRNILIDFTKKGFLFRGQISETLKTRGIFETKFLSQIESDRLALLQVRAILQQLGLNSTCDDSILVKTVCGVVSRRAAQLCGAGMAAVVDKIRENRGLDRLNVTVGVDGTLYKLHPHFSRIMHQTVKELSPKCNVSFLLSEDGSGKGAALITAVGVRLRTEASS

How did the AC50 [1] turn out when `CCn1ccnc1CN(C)C(=O)c1cc(COc2ccc(Cl)cc2OC)on1` was run?
The AC50 was 160 µM (active).

And the EC50 [2]?
Its EC50 is > 195 µM (not active).

For `COc1ccc(C(NC(=O)CCc2ccccc2)c2ccc3cccnc3c2O)cc1` (centres undefined), which IC50 [3] is on record?
The IC50 was 2.52 µM (active).

And the IC50 [4]?
The IC50 was 2.3 µM (active).

What about the IC50 [5] of the same compound?
Its IC50 is 22.5 µM (inactive).

Which results are given for `CC(Oc1ccc(Cl)cc1Cl)c1nc(-c2ccc(NC(=O)c3ccccn3)cc2)no1` (centres undefined)?
EC50 [6]: 0.0883 µM (active); EC50 [7]: 0.973 µM (active)

`O=c1c2ccccc2nc(/C=C/c2ccncc2)n1-c1ccccc1` was tested. Which IC50 [8] did it give?
Its IC50 is > 80 µM (inactive).

And the IC50 [9]?
Its IC50 is > 80 µM (inactive).
